Reference: PMC5177531 (ACS chemical neuroscience, 2016)
Like-named read-outs stand apart in the source and are kept apart here. Non-standard residues stand in square brackets, D forms with d. Residues, ends and D or L forms follow the SMILES beside them. Dmt = Cc1cc(O)cc(C)c1C[C@H](N)C(=O)O; Tic = O=C(O)[C@@H]1Cc2ccccc2CN1; βAla = NCCC(=O)O; Sar = CNCC(=O)O

Experiments:
MOR-1 = MOR-1 (Mus musculus, UniProt P42866); assay: Competition of 3H-DAMGO binding in CHO cells expressing MOR-1
[1] = target: 125I-IDAPP binding sites in C57/Bl6 brain homogenates (Mus musculus, UniProt P42866)
[2] = target: 3H-DAMGO binding sites in C57 brain tissue (Mus musculus, UniProt P42866)
MOR-1 variants (Oprm1) [3] = conditions: mouse, in vivo; cited from earlier work
[4] = test system: brain membranes (WT, E11 KO, E1/E11 KO); assay: 35S-GTPγS binding in brain membranes
mMOR = mMOR (Mus musculus, UniProt P42866); assay: 35S-GTPγS binding in mMOR-CHO membranes; conditions: read-out: Max stimulation (% over basal)
MOR-1 variants (Oprm1) [5] = format: in vivo, mouse; conditions: knockout and/or antisense models; Figs. 2,3,4
mKOR = mKOR (Mus musculus, UniProt P33534); assay: 35S-GTPγS binding in mKOR-CHO membranes; conditions: read-out: Max stimulation (% over basal)
[6] = target: spinal cord membranes (WT, E11 KO) (Mus musculus, UniProt P42866); assay: 35S-GTPγS binding in spinal cord membranes
CD-1 mice = assay: Cross tolerance in morphine pelleted mice, tail flick analgesia; format: in vivo, mouse; conditions: for analgesic ED50: i.c.v., 72 hr
mDOR = mDOR (Mus musculus, UniProt P32300); assay: 35S-GTPγS binding in mDOR-CHO membranes; conditions: read-out: Max stimulation (% over basal)
[7] = test system: C57Bl/6 wild type (WT) and exon 11 KO (E11 KO) mice; assay: Radiant heat tail flick analgesia in wild type and exon 11 KO mice; format: in vivo, mouse; conditions: for analgesic ED50: tail flick
mDOR-1 = mDOR-1 (Mus musculus, UniProt P32300); assay: Competition binding versus 125I-IBNtxA in mDOR-CHO membranes
mMOR-1 = mMOR-1 (Mus musculus, UniProt P42866); assay: Competition binding versus 125I-IBNtxA in mMOR-CHO membranes
mKOR-1 = mKOR-1 (Mus musculus, UniProt P33534); assay: Competition binding versus 125I-IBNtxA in mKOR-CHO membranes
6TM/E11 = 6TM/E11 (Mus musculus, UniProt P42866); assay: Competition binding versus 125I-IBNtxA at the 6TM-containing
[8] = test system: E1/E11 KO and E11 KO mice; conditions: cited from earlier work
[9] = test system: C57Bl/6 wild type (WT) and exon 11 KO (E11 KO) mice; conditions: cited from earlier work
[10] = 0.1 nM 125I-IDAPP, C57/Bl6 brain homogenates, no blockers
[11] = E11 KO mice, supraspinal (i.c.v.; IDAPP also i.t.)

## C[C@@H](O)[C@H](NC(=O)[C@H]1NC(=O)[C@H]([C@@H](C)O)NC(=O)[C@H](CCCN=C(N)N)NC(=O)[C@@H](Cc2c[nH]c3ccccc23)NC(=O)[C@H](Cc2ccc(O)cc2)NC(=O)[C@@H](NC(=O)[C@H](N)Cc2ccccc2)CSSC1(C)C)C(N)=O [CTAP, D-Phe-Cys-Tyr-D-Trp-Arg-Thr-Pen-Thr-NH2]
MOR-1
  IC50: 4.8 ± 0.4 nM
[1]
  Ki: 1.1 ± 0.3 nM
[2]
  IC50: 4.1 ± 0.2 nM

## Clc1cccc(Cl)c1N=C1NCCN1 [Clonidine]
MOR-1 variants (Oprm1) [3]
  MOR-1 Variants required for analgesia: 6TM

## C[C@@H](NC(=O)[C@@H](N)Cc1ccc(O)cc1)C(=O)NCC(=O)N(C)[C@@H](Cc1ccccc1)C(=O)NCCO [DAMGO, [D-Ala^2,N-MePhe^4,Gly(ol)^5]-enkephalin]
[4]; E1/E11 KO
  Max stimulation (% over basal): −6 ± 1 % over basal
[4]; E11 KO
  EC50: 220 ± 13 nM
  Max stimulation (% over basal): 19 ± 6 % over basal
[4]; WT
  EC50: 190 ± 8 nM
  Max stimulation (% over basal): 15 ± 2 % over basal
mMOR
  Emax: 396 ± 21%
MOR-1 variants (Oprm1) [5]
  MOR-1 Variants required for analgesia: 7TM
mKOR
  Emax: -16 ± 8%
[6]; read-out: Max stimulation (% over basal), spinal cord, E11 KO
  Emax: 7 ± 4%
[6]; read-out: Max stimulation (% over basal), spinal cord, WT
  Emax: 11 ± 2%
CD-1 mice; morphine pellet (75 mg free base) CD-1 mice
  analgesic ED50: 1.5 ± 0.47 µg
CD-1 mice; morphine pelleted versus placebo
  analgesia in morphine pelleted mice (cross tolerance): cross tolerant with morphine
CD-1 mice; placebo pellet CD-1 mice
  analgesic ED50: 0.04 ± 0.02 µg
[1]; [10]
  Hill Slope: −0.9 ± 0.1
mDOR
  Emax: -2 ± 7%
[7]; E11 KO mice, i.c.v.
  analgesic ED50: 0.23 µg
[7]; E11 KO mice, i.t.
  analgesic ED50: 0.27 µg
[7]; E11 KO mice, spinal (i.t.)
  analgesic activity in E11 KO mice: still elicited a full response
[7]; [11]
  analgesic activity in E11 KO mice: retained full analgesic activity
[7]; WT C57Bl/6 mice, i.c.v.
  analgesic ED50: 0.13 µg
[7]; WT C57Bl/6 mice, i.t.
  analgesic ED50: 0.02 µg

## CC[C@H](C)[C@H](NC(=O)[C@H](Cc1ccccc1)NC(=O)[C@H](Cc1ccccc1)NC(=O)[C@@H](C)NC(=O)[C@@H](N)Cc1c(C)cc(O)cc1C)C(N)=O [DAPPI, Dmt-D-Ala-Phe-Phe-Ile-NH2] (H-[Dmt][dA]FFI-NH2)
mDOR-1
  Ki: 0.3 ± 0.2 nM
mMOR-1
  Ki: 0.3 ± 0.1 nM
mKOR-1
  Ki: 7 ± 0.4 nM

## C[C@@H](NC(=O)[C@@H](N)Cc1ccc(O)cc1)C(=O)N[C@@H](Cc1ccccc1)C(=O)NCC(=O)N[C@@H](Cc1ccc(O)cc1)C(=O)N1CCC[C@H]1C(=O)N[C@@H](CO)C(N)=O [Dermorphin, Tyr-D-Ala-Phe-Gly-Tyr-Pro-Ser-NH2]
mMOR-1
  Ki: 4 ± 0.5 nM
6TM/E11
  Ki: > 500 nM

## Cc1cccc([C@H](C)c2cnc[nH]2)c1C [Dexmedetomidine]
MOR-1 variants (Oprm1) [3]
  MOR-1 Variants required for analgesia: 6TM

## NC(=O)[C@H](Cc1ccccc1)NC(=O)[C@H](Cc1c[nH]c2ccccc12)NC(=O)[C@@H]1CCCN1C(=O)[C@@H](N)Cc1ccc(O)cc1 [Endomorphin 1, Tyr-Pro-Trp-Phe-NH2]
[4]; E1/E11 KO
  Max stimulation (% over basal): −5 ± 3 % over basal
[4]; E11 KO
  EC50: 17 ± 7 nM
  Max stimulation (% over basal): 23 ± 1 % over basal
[4]; WT
  EC50: 222 ± 31 nM
  Max stimulation (% over basal): 39 ± 2 % over basal
MOR-1 variants (Oprm1) [5]
  MOR-1 Variants required for analgesia: 7TM + 6TM
[1]
  Hill Slope: −0.7 ± 0.1
mDOR
  Emax: -3 ± 1%
[7]; [11]
  analgesic activity in E11 KO mice: eliminated the analgesic response
[7]; WT C57Bl/6 mice, i.c.v.
  analgesic ED50: 3.39 µg

## NC(=O)[C@H](Cc1ccccc1)NC(=O)[C@H](Cc1ccccc1)NC(=O)[C@@H]1CCCN1C(=O)[C@@H](N)Cc1ccc(O)cc1 [Endomorphin 2, Tyr-Pro-Phe-Phe-NH2]
[4]; E1/E11 KO
  Max stimulation (% over basal): 1 ± 1 % over basal
[4]; E11 KO
  EC50: 103 ± 8 nM
  Max stimulation (% over basal): 24 ± 2 % over basal
[4]; WT
  EC50: 151 ± 43 nM
  Max stimulation (% over basal): 35 ± 1 % over basal
MOR-1 variants (Oprm1) [5]
  MOR-1 Variants required for analgesia: 7TM + 6TM
mDOR
  Emax: -3 ± 2%
[7]; [11]
  analgesic activity in E11 KO mice: eliminated the analgesic response
[7]; WT C57Bl/6 mice, i.c.v.
  analgesic ED50: 1.14 µg

## O=C(N[C@@H]1CC[C@@]2(O)[C@H]3Cc4ccc(O)c5c4[C@@]2(CCN3CC2CC2)[C@H]1O5)c1cccc(I)c1 [IBNtxA, 3-iodobenzoyl-6β-naltrexamide]
[8]
  rescue of analgesia by mMOR-1G lentivirus in E1/E11 KO mice: able to rescue
MOR-1 variants (Oprm1) [3]
  MOR-1 Variants required for analgesia: 6TM

## C[C@H]1[C@H]2C(=O)c3ccc(O)cc3[C@@]1(C)CCN2CC1CC1 [Ketocyclazocine]
MOR-1 variants (Oprm1) [3]
  MOR-1 Variants required for analgesia: 6TM

## CN1CC[C@]23c4c5ccc(O)c4O[C@H]2[C@@H](O[C@@H]2O[C@H](C(=O)O)[C@@H](O)[C@H](O)[C@H]2O)C=C[C@H]3[C@H]1C5 [M6G]
[1]
  Hill Slope: −0.6 ± 0.1
  Ki: 0.7 ± 0.3 nM

## CN1CC[C@]23c4c5ccc(O)c4O[C@H]2[C@@H](O)C=C[C@H]3[C@H]1C5 [Morphine]
[9]
  analgesic activity in E11 KO mice: maintaining full analgesic activity

## Oc1ccc2c3c1O[C@H]1c4[nH]c5ccccc5c4C[C@@]4(O)[C@@H](C2)N(CC2CC2)CC[C@]314 [Naltrindole]
[1]; [10]
  Ki: > 1000 nM

## Oc1ccc2c3c1O[C@H]1c4[nH]c5c(c4C[C@@]4(O)[C@@H](C2)N(CC2CC2)CC[C@]314)C[C@@]1(O)[C@H]2Cc3ccc(O)c4c3[C@@]1(CCN2CC1CC1)[C@H]5O4 [NorBNI]
[1]; [10]
  Ki: > 1000 nM

## C=CCN1C[C@H](C)N([C@H](c2ccc(C(=O)N(CC)CC)cc2)c2cccc(OC)c2)C[C@H]1C [SNC80]
[1]
  Ki: > 1000 nM
MOR-1 variants (Oprm1) [3]
  MOR-1 Variants required for analgesia: 7TM + 6TM

## COC(=O)[C@@H]1C[C@H](OC(C)=O)C(=O)[C@H]2[C@@]1(C)CC[C@H]1C(=O)O[C@H](c3ccoc3)C[C@]21C [Salvinorin A]
MOR-1 variants (Oprm1) [3]
  MOR-1 Variants required for analgesia: 6TM

## C[C@@H](NC(=O)[C@@H](N)Cc1ccc(O)cc1)C(=O)N[C@@H](Cc1ccccc1)C(=O)NCCC(N)=O [TAPA, Tyr-D-Ala-Phe-βAla-NH2] (H-Y[dA]F[βAla]-NH2)
mDOR-1
  Ki: 48 ± 1 nM
mMOR-1
  Ki: 11 ± 0.3 nM
mKOR-1
  Ki: > 500 nM
6TM/E11
  Ki: 40 ± 7 nM

## C[C@@H](NC(=O)[C@@H](N)Cc1ccc(O)cc1)C(=O)N[C@@H](Cc1ccccc1)C(=O)N[C@@H](Cc1ccccc1)C(N)=O [TAPP, Tyr-D-Ala-Phe-Phe-NH2] (H-Y[dA]FF-NH2)
mDOR-1
  Ki: 3 ± 0.1 nM
mMOR-1
  Ki: 3 ± 0.2 nM
mKOR-1
  Ki: > 500 nM
6TM/E11
  Ki: 130 ± 16 nM

## CC[C@H](C)[C@H](NC(=O)[C@H](Cc1ccccc1)NC(=O)[C@H](Cc1ccccc1)NC(=O)[C@@H](C)NC(=O)[C@@H](N)Cc1ccc(O)cc1)C(N)=O [TAPPI, Tyr-D-Ala-Phe-Phe-Ile-NH2] (H-Y[dA]FFI-NH2)
mDOR-1
  Ki: 6 ± 0.1 nM
mMOR-1
  Ki: 0.2 ± 0.2 nM
6TM/E11
  Ki: 100 ± 10 nM

## CC(C)[C@H](NC(=O)[C@H](Cc1ccccc1)NC(=O)[C@H](Cc1ccccc1)NC(=O)[C@@H](C)NC(=O)[C@@H](N)Cc1ccc(O)cc1)C(N)=O [TAPPV, Tyr-D-Ala-Phe-Phe-Val-NH2] (H-Y[dA]FFV-NH2)
mMOR-1
  Ki: > 500 nM
6TM/E11
  Ki: > 500 nM

## C[C@@H](NC(=O)[C@@H](N)Cc1ccc(O)cc1)C(=O)N[C@@H](Cc1ccccc1)C(=O)N(C)CC(N)=O [TAPS, Tyr-D-Ala-Phe-Sar-NH2] (H-Y[dA]F[Sar]-NH2)
mDOR-1
  Ki: 35 ± 2 nM
mMOR-1
  Ki: 6 ± 0.7 nM
mKOR-1
  Ki: > 500 nM
6TM/E11
  Ki: 50 ± 8 nM

## N[C@@H](Cc1ccc(O)cc1)C(=O)N1Cc2ccccc2C[C@H]1C(=O)N[C@@H](Cc1ccccc1)C(=O)N[C@@H](Cc1ccccc1)C(=O)O [TIPP, Tyr-Tic-Phe-Phe-OH] (H-Y[Tic]FF-OH)
mMOR-1
  Ki: > 500 nM
mKOR-1
  Ki: > 500 nM
6TM/E11
  Ki: 163 ± 12 nM

## DPDPE
MOR-1 variants (Oprm1) [3]
  MOR-1 Variants required for analgesia: 7TM + 6TM
